Laboratory results reported in patent US20060014704A1, “Compounds and their preparation for the treatment of Alzheimer's disease by inhibiting beta-amyloid peptide production” (priority 2004, published 2006).
“Also recorded” adds a separate entry of the source. Like-named read-outs stand apart in the source and are kept apart here.

Legend:
[1] = test system: Aβ40 and Aβ42 production, CHO cells stably transfected with human APP695; experiment: Secreted Aβ40/Aβ42 ELISA in CHO cells expressing human APP (CHO-APP cells); format: cell-based, Chinese hamster; parameters: key to Aβ42-lowering activity: Aβ42-lowering activity (“Yes”); no profound effects (“No”); non-determined (“ND”); Ginsenosides that affected cell viability are indicated as “Cytotoxic.”; conditions: for Aβ42-lowering activity: summary of Tables 1-3; for inhibitory effects on Aβ40 production / inhibitory effects on Aβ42 production: ginsenosides of unprocessed ginseng, 8 hours, FIG. 10 (50 μM); for levels of Aβ42 / production of Aβ42: CHO cells expressing wild-type human APP, PPT/PT
Protocol: The CHO cells were treated with the indicated compounds (at 50 μg/ml) for 8 hrs. Aβ42 levels in the medium were measured by ELISA and normalized to intracellular full-length APP.
The potential effects of ginsenosides and their analogues in treating AD were examined. First, a number of ginsenosides were screened based on their effects on Aβ generation. The effects of various ginsenosides on Aβ (e.g., Aβ40 and Aβ42) production was initially accessed by incubating the Chinese hamster ovary (CHO) cells expressing human APP(CHO-APP cells) with each ginsenoside purified from unprocessed ginseng (known as “white ginseng”). These representative ginsenosides included Rb1, Rb2, Rc, Rd, Re, Re, Rg1 and Rg2 and differ in their side chains and sugar moieties.
After 8 hours of incubation, the media were collected and the levels of secreted Aβ40 and Aβ42 were determined by ELISA.

[2] = test system: Aβ40 and Aβ42 generation, Neuro2a-SW cells; experiment: Aβ generation in Neuro2a cells expressing human Swedish mutant APP (Neuro2a-SW); format: cell-based, mouse; conditions: FIG. 16; for levels of Aβ42 / production of Aβ42: Neuro2a-SW
From the text: FIG. 16 depicts the effects of two major metabolites of ginsenosides, including 20(S)-protopanaxatriol (PPT) and 20(S)-protopanaxadiol (PPD) on Aβ42 generation. 20(S)-panaxatriol (PT) and 20(S)-panaxadiol (PD) are the artificial derivatives of PPT and PPPD, respectively.
Ginsenosides are metabolized by human intestinal bacteria after oral administration of ginseng extract (Kobayashi K., et al., Metabolism of ginsenoside by human intestinal bacteria [II] Ginseng Review 1994; 18: 10-14; Hasegawa H., et al., Main ginseng saponin metabolites formed by intestinal bacteria. Planta Med. 1996; 62: 453-457.). Therefore, the effects of two major metabolites of ginsenosides, including 20(S)-protopanaxatriol (PPT) and 20(S)-protopanaxadiol (PPD) on Aβ42 generation were tested. 20(S)-panaxatriol (PT) and 20(S)-panaxadiol (PD) are the artificial derivatives of PPT and PPPD, respectively.

[3] = test system: Aβ42 production in mammalian cells; conditions: Tae-Wan Kim et al.; cited from earlier work
[4] = molecular target: T1, γ-secretase cleavage of p75 neurotrophin receptor (p75-ICD) (Homo sapiens, UniProt P49768); experiment: Cell-free generation of p75-ICD from membrane fractions of 293 cells overexpressing p75-AE; format: biochemical
T1 construct: Membrane fractions isolated from 293 cells overexpressing either APP (A), Notch-AE (B) or p75-AE (C); endogenous in cells; host or cells: 293 cells (membrane fractions); only the substrates APP, Notch-ΔE and p75-ΔE are overexpressed
Protocol: (§1) Membrane fractions isolated from 293 cells overexpressing either APP (A), Notch-AE (B) or p75-AE (C) and incubated in the presence of indicated compounds: Compound E (CpdE, general γ-secretase inhibitor), Rgk351, Rk1 and sulindac sulfide (SS).

[5] = molecular target: T2, γ-secretase cleavage of Notch1 (NICD) (Homo sapiens, UniProt P49768); experiment: Cell-free generation of NICD from membrane fractions of 293 cells overexpressing Notch-AE; format: biochemical
T2 construct: Membrane fractions isolated from 293 cells overexpressing either APP (A), Notch-AE (B) or p75-AE (C); endogenous in cells; host or cells: 293 cells (membrane fractions); only the substrates APP, Notch-ΔE and p75-ΔE are overexpressed
Protocol: as §1

[6] = molecular target: T3, γ-secretase cleavage of APP (AICD) (Homo sapiens, UniProt P49768); experiment: Cell-free generation of AICD from membrane fractions of 293 cells overexpressing APP; format: biochemical
T3 construct: Membrane fractions isolated from 293 cells overexpressing either APP (A), Notch-AE (B) or p75-AE (C); endogenous in cells; host or cells: 293 cells (membrane fractions); only the substrates APP, Notch-ΔE and p75-ΔE are overexpressed
Protocol: as §1

[7] = test system: Aβ40 and Aβ42 production, CHO-APP/PS1 cells; experiment: Secreted Aβ ELISA in CHO-APP/PS1 cells (wild-type PS1); format: cell-based, Chinese hamster; conditions: 50 μM, 8 hrs, FIG. 11; for secretion of Aβ42: heat-processing derived ginsenosides
Protocol: The effects of Rg5 on the Aβ42 generation were much smaller as compared to Rgk351 and Rk1.
FIG. 10 depicts the effects of native ginsenosides on Aβ42 production. CHO cells stably transfected with human APP695 together with either wild-type (A, CHO-APP/PS1 cells) or ΔE9 FAD mutant (B, CHO-APP/ΔE9PS1 cells) forms of PS1 were used. Cells were treated with the indicated compounds (at 50 μM) for 8 hrs. Levels of secreted Aβ40 and Aβ42 in the medium were determined by ELISA and normalized to intracellular full-length APP. In CHO-APP/PS1 cells, average Aβ amounts in control samples were 320 pM for Aβ40 and 79 pM for Aβ42. The relative levels of Aβ and Aβ42 were normalized to values obtained from non-treated and vehicle-treated cells and are shown as % to control+s.d.). One of three representative experiments are shown.
CHO-APP/PS1 (A) and CHO-APP/ΔE9PS1 (B) cells were treated with the indicated compounds at 50 μM for 8 hrs and the levels of secreted Aβ40 and Aβ42 were determined as described in FIG. 1. […] The PS1-ΔE9 FAD mutation diminished the Aβ42 response to Rk1 treatment (B).

[8] = molecular target: γ-secretase (Homo sapiens, UniProt P49768); experiment: Cell-free γ-secretase assay (CHAPSO-solubilized membrane fractions, recombinant substrates, Aβ ELISA); format: biochemical; conditions: cell-free γ-secretase assay, FIG. 15 (100 μM in A)
Protocol: (A) CHAPSO-solubilized membrane fractions were incubated with recombinant γ-secretase substrates together with the indicated compounds (at 100 μM) and the levels of Aβ42 and Aβ40 were determined by ELISA as described (27-29). (B) Dose-response of Aβ40 and Aβ42-lowering activity of Rk1 and (20S)Rg3 in a cell-free γ-secretase assay.
Next, the inhibitory effects of Rk1 and (20S)Rg3 on Aβ generation in an in vitro γ-secretase assay was studied. […] In contrast, naproxen, an NSAID without Aβ42-lowering activity, had no effects on Aβ42 production (FIG. 15A).

CC(C)=CC/C=C(\C)[C@H]1CC[C@]2(C)[C@@H]1[C@H](O)C[C@@H]1[C@@]3(C)CC[C@H](O)C(C)(C)[C@@H]3[C@@H](O[C@@H]3O[C@H](CO)[C@@H](O)[C@H](O)[C@H]3O)C[C@]12C [Rh4]
Aβ42-lowering activity [1]: No

CC(C)=CCC[C@](C)(O)[C@H]1CC[C@]2(C)[C@@H]1[C@H](O)C[C@@H]1[C@@]3(C)CC[C@H](O)C(C)(C)[C@@H]3CC[C@]12C [PPD, 20(S)-protopanaxadiol]
Aβ42-lowering activity [1]: No
inhibitory effects on Aβ40 generation [2]: did not confer any inhibitory effects
inhibitory effects on Aβ42 generation [2]: did not confer any inhibitory effects

CC(C)=CCC[C@](C)(O[C@@H]1O[C@H](CO[C@@H]2OC[C@H](O)[C@H](O)[C@H]2O)[C@@H](O)[C@H](O)[C@H]1O)[C@H]1CC[C@]2(C)[C@@H]1[C@H](O)C[C@@H]1[C@@]3(C)CC[C@H](O[C@@H]4O[C@H](CO)[C@@H](O)[C@H](O)[C@H]4O[C@@H]4O[C@H](CO)[C@@H](O)[C@H](O)[C@H]4O)C(C)(C)[C@@H]3CC[C@]12C [Rb2]
inhibitory effects on Aβ40 production [1]: None
inhibitory effects on Aβ42 production [1]: None
Aβ42-lowering activity [1]: No

CC(C)=CCC[C@](C)(O[C@@H]1O[C@H](CO)[C@@H](O)[C@H](O)[C@H]1O)[C@H]1CC[C@]2(C)[C@@H]1[C@H](O)C[C@@H]1[C@@]3(C)CC[C@H](O)C(C)(C)[C@@H]3[C@@H](O[C@@H]3O[C@H](CO)[C@@H](O)[C@H](O)[C@H]3O)C[C@]12C [Rg1]
amyloid-reducing activity in vitro [3]: no amyloid-reducing activity in vitro
inhibitory effects on Aβ40 production [1]: None
inhibitory effects on Aβ42 production [1]: None
Aβ42-lowering activity [1]: No

C[C@H](NC(=O)Cc1cc(F)cc(F)c1)C(=O)N[C@H]1N=C(c2ccccc2)c2ccccc2N(C)C1=O [Compound E]
cell-free generation of p75-ICD [4]: efficiently inhibited
cell-free generation of p75-ICD ([4]; listed as Cpd.E): Very low amounts
cell-free generation of NICD [5]: efficiently inhibited
cell-free generation of NICD ([5]; listed as Cpd.E): Very low amounts
cell-free generation of AICD [6]: efficiently inhibited
cell-free generation of AICD ([6]; listed as Cpd.E): Very low amounts

CC(C)=CCCC(C)(O)C1CCC2(C)C1C(O)CC1C3(C)CCC(OC4OC(CO)C(O)C(O)C4OC4OC(CO)C(O)C(O)C4O)C(C)(C)C3CCC12C [(20R)Rg3]
generation of Aβ42 (Aβ42 levels in the medium, ELISA, normalized to intracellular full-length APP) ([1]; 50 μg/ml, 8 hrs, FIG. 4): reduce the generation of Aβ42
Aβ42-lowering activity [1]: Yes
potency of Aβ42-reducing activity (rank) [7]: Rk1>/=(20S)Rg3>Rg5>(20R)Rg3
secretion of Aβ42 [7]: not affected

COc1ccc2cc([C@H](C)C(=O)O)ccc2c1 [naproxen, reference compound]
Aβ42 generation in vitro [8]: no effects

CC(C)=CCC[C@](C)(O)[C@H]1CC[C@]2(C)[C@@H]1[C@H](O)C[C@@H]1[C@@]3(C)CC[C@H](O)C(C)(C)[C@@H]3[C@@H](O[C@@H]3O[C@H](CO)[C@@H](O)[C@H](O)[C@H]3O)C[C@]12C [Rh1]
Aβ42-lowering activity [1]: No
secretion of Aβ42 [7]: not significant; also recorded: not affected

CC(C)=CCC[C@](C)(O[C@@H]1O[C@H](CO[C@@H]2O[C@H](CO)[C@@H](O)[C@H](O)[C@H]2O)[C@@H](O)[C@H](O)[C@H]1O)[C@H]1CC[C@]2(C)[C@@H]1[C@H](O)C[C@@H]1[C@@]3(C)CC[C@H](O[C@@H]4O[C@H](CO)[C@@H](O)[C@H](O)[C@H]4O[C@@H]4O[C@H](CO)[C@@H](O)[C@H](O)[C@H]4O)C(C)(C)[C@@H]3CC[C@]12C [Rb1]
inhibitory effects on Aβ40 production [1]: None
inhibitory effects on Aβ42 production [1]: None
Aβ42-lowering activity [1]: No

C=C(CCC=C(C)C)[C@H]1CC[C@]2(C)[C@@H]1[C@H](O)C[C@@H]1[C@@]3(C)CC[C@H](O)C(C)(C)[C@@H]3[C@@H](O[C@@H]3O[C@H](CO)[C@@H](O)[C@H](O)[C@H]3O)C[C@]12C [Rk3]
Aβ42-lowering activity [1]: No

CC(C)=CCC[C@](C)(O)[C@H]1CC[C@]2(C)[C@@H]1[C@H](O)C[C@@H]1[C@@]3(C)CC[C@H](O)C(C)(C)[C@@H]3[C@@H](O)C[C@]12C [PPT, 20(S)-protopanaxatriol]
levels of Aβ42 [1]: without affecting
production of Aβ42 [1]: reduced the production of Aβ42
Aβ42-lowering activity [1]: Yes
levels of Aβ42 [2]: without affecting
production of Aβ42 [2]: reduced the production of Aβ42

CC(C)=CCC[C@](C)(O)[C@H]1CC[C@]2(C)[C@@H]1[C@H](O)C[C@@H]1[C@@]3(C)CC[C@H](O)C(C)(C)[C@@H]3[C@@H](O[C@@H]3O[C@H](CO)[C@@H](O)[C@H](O)[C@H]3O[C@@H]3O[C@@H](C)[C@H](O)[C@@H](O)[C@H]3O)C[C@]12C [Rg2]
inhibitory effects on Aβ40 production [1]: None
inhibitory effects on Aβ42 production [1]: None
Aβ42-lowering activity [1]: No

CC1(C)CCC[C@](C)([C@H]2CC[C@]3(C)[C@@H]2[C@H](O)C[C@@H]2[C@@]4(C)CC[C@H](O)C(C)(C)[C@@H]4[C@@H](O)C[C@]23C)O1 [PT, 20(S)-panaxatriol]
levels of Aβ42 [1]: without affecting
production of Aβ42 [1]: reduced the production of Aβ42
levels of Aβ42 [2]: without affecting
production of Aβ42 [2]: reduced the production of Aβ42

CC(C)=CCC[C@](C)(O[C@@H]1O[C@H](CO[C@@H]2OC[C@@H](O)[C@H](O)[C@H]2O)[C@@H](O)[C@H](O)[C@H]1O)[C@H]1CC[C@]2(C)[C@@H]1[C@H](O)C[C@@H]1[C@@]3(C)CC[C@H](O[C@@H]4O[C@H](CO)[C@@H](O)[C@H](O)[C@H]4O[C@@H]4O[C@H](CO)[C@@H](O)[C@H](O)[C@H]4O)C(C)(C)[C@@H]3CC[C@]12C [Rb3]
Aβ42-lowering activity [1]: No

CC1(C)CCC[C@](C)([C@H]2CC[C@]3(C)[C@@H]2[C@H](O)C[C@@H]2[C@@]4(C)CC[C@H](O)C(C)(C)[C@@H]4CC[C@]23C)O1 [PD, 20(S)-panaxadiol]
inhibitory effects on Aβ40 generation [2]: did not confer any inhibitory effects
inhibitory effects on Aβ42 generation [2]: did not confer any inhibitory effects
